Assay results taken from patent US20240041830A1, “CIRCULATING BIOMARKERS OF RESPONSE TO PD-1/PD-L1 BLOCKADE AND GSK-3 INHIBITION” (Brown University, priority 2022, published 2024).

Experiments:
[1] = system: patient-derived CD8+ T cells; experiment: ex vivo cytokine profiling of supernatant (Luminex); assay type: cell-based, human; details: forty-eight hours (1 NM) vs DMSO
Procedure: (§1) Human cytokine profiling. Human cell line culture supernatants were analyzed using an R&D systems Human Premixed Multi-Analyte Kit (R&D Systems, Inc., Minneapolis, MN, USA) and a Luminex 200 (RRID: SCR_018025) Instrument (LX200-XPON-RUO, Luminex Corporation, Austin, TX, USA) according to the manufacturer's instructions. Sample levels of TNF-α, 4-1BB/TNFRSF9/CD137, IL-8/CXCL8, Ferritin, IFN-β, IL-10, CCL2/JE/MCP-1, VEGF, CXCL13/BLC/BCA-1, IFN-γ, CCL20/MIP-3 α, CCL3/MIP-1 α, CCL22/MDC, CCL4/MIP-1 β, Fas Ligand/TNFSF6, IL-17/1L-17A, IL-2, BAFF/BLyS/TNFSF13B, GM-CSF, CXCLS/ENA-78, TRANCE/TNFSF11/RANK L, CXCL9/MIG, G-CSF, IFN-γ R1/CD119, VEGFR3/Flt-4, C-Reactive Protein/CRP, CXCL11/I-TAC, IL-21, CXCL14/BRAK, IL-6, Fas/TNFRSF6/CD95, TRAIL R3/TNFRSF10C, IL-4, CCL5/RANTES, PD-L1/137-H1, CCL7/MCP-3/MARC, Chitinase 3-like 1, CXCL10/IP-10/CRG-2, IL-1 μ/IL-1F2, IL-7, Prolactin, CCL8/MCP-2, TRAIL R2/TNFRSF10B, M-CSF, IL-15, Granzyme B, IFN-α, TREM-1, IL-12/1L-23 p40, TRAIL/TNFSF10, CCL11/Eotaxin, and 1L-18/1L-1F4. Quantitative analysis with 6 standards and a minimum of 50 counts per bead region was used with the Luminex to generate analyte values reported as picograms/milliliter (pg/mL). Sample concentrations less than the lower limit of detection for each particular analyte were recoded as the lower limit value divided by 10. Sample concentrations above the upper limit of detection for a particular analyte were recoded as the upper limit of detection.
The inventors collected peripheral blood during the patient's best response at fifteen months, corresponding with their lowest concentration of sIL-2 r in the peripheral blood, and isolated CD8+, non-ATLL T cells for further analysis. The inventors then treated these CD8+ cells ex vivo with elraglusib and assessed changes in cytokine, chemokine, and growth factor profiles in the cell culture supernatant using Luminex (LX200) technology and a custom cytokine panel described by Huntington, Louie, Zhou, & EI-Deiry, A high-throughput customized cytokinome screen of colon cancer cell responses to small-molecule oncology drugs. Oncotarget, 12, 1980-1991 (2021).
Treatment of patient-derived CD8+ T cells with elraglusib increases granzyme B, TRAIL, and IFN-gamma secretion while decreasing VEGF, TNF-alpha, and CCL5/RANTES concentrations in cell culture supernatant in comparison to control groups. Patient-derived CD8+ cytotoxic T cells were treated with elraglusib for forty-eight hours (1 NM) or control (DMSO) and cytokine concentration was measured in cell culture supernatants. (Statistical significance was calculated with GraphPad Prism 9.3.1 using unpaired t tests and is denoted on each plot as follows: P>0.05=n.s., P≤0.05=*, P≤0.01=**, P≤0.001=***, and P≤0.0001=**** (N=3).

[2] = system: panel of human colorectal cell lines; experiment: Luminex 200 analysis of tumor cell culture supernatants (Example 1); assay type: cell-based
Procedure: as §1
A panel of human colorectal cell lines was chosen to provide a varied mutational background (TP53, KRAS, BRAF, TRK, APC, PIK3CA). Cells were treated with elraglusib at doses up to 50 μM for seventy-two hours to determine IC10, IC30, IC50, and IC70. Cytokine, chemokine, and growth factor levels were analyzed in the tumor cell culture supernatants after treatment at IC10, IC30, IC50, and IC70 for forty-eight hours using a Luminex 200 multiplexing instrument. Co-culture experiments were conducted with GFP+ SW480 colorectal cancer cells and either NK-92 natural killer cells or TALL-104 T cells at various effector/target ratios in a 48-well plate, in the presence or absence of elraglusib.

Structure (SMILES): Cn1cc(C2=C(c3coc4ccc(F)cc34)C(=O)NC2=O)c2cc3c(cc21)OCO3 [elraglusib]
- CCL5/RANTES concentration in supernatant [1]: decreasing
- IFN-gamma secretion [1]: increases
- TNF-alpha concentration in supernatant [1]: decreasing
- TRAIL secretion [1]: increases
- VEGF concentration in supernatant [1]: decreasing
- granzyme B secretion [1]: increases
- macrophage colony-stimulating factor (M-CSF) [2]: decrease
- VEGF in supernatant ([2]; IC10, IC30, IC50, IC70 for forty-eight hours): decreased
- Overall cytokine levels ([2]; in response to increasing doses): decreasing trend
- CXCL14 (BRAK) in supernatant ([2]; with increasing doses): increase
